Measurements: patent publication US6835720B2, “Compounds having antiviral activity” (Nissin Food Products Co., Ltd., priority 1996, dated 2004)
pIC50: −log10 of the molar value. Where two headings read alike, the source gives them in different places.

What was measured:
[1] = system: human T cells (H9 cell line); test: Cytotoxicity, viable cells counted by the MTT method; format: cell-based
Method: (§1) Samples of various concentrations (25 μl) are distributed into a 24-well microplate, immediately added with human T cells (H9 cell line, 1.2×10^5/ml) (1 ml), covered, and incubated at 37° C. for 1 h. Then, AIDS virus (HIV-1, IIIb, 100 TCID 50) (25 μl) is added to each well and thoroughly mixed, covered again, and incubated under the CO2 atmosphere at 37° C. for 3 days. On the fourth day, aliquots (200 μl) of the culture medium from each well are transferred into a fresh microplate. The growth medium (500 μl) is added to each well, and further incubated for 2 days.
(§2) On the 6th day, aliquots (90 μl) of the culture supernatant are withdrawn, and assayed the amount of p24, a constituent of HIV-1, by ELISA method using the anti-p24 antibody to assess the growth of said virus. Also, using the remaining cell culture suspension (100 μl), viable cells are counted by the MTT method. Experimental values are expressed as the ratios (%) to the negative control value (measured using the solvent to dissolve test compounds as the sample) to represent the anti-HIV activity and cytotoxicity. Then, for the unified representation of the anti-HIV activity and cytotoxicity, the concentrations of test compounds at their 50% values are obtained from the activity-concentration curves and the cytotoxicity-concentration, and represented as IC50 and CC50, respectively.

AIDS virus (HIV-1, IIIb) = format: cell-based; conditions: HIV-1 IIIb in H9 cells, p24 in culture supernatant by ELISA on the 6th day
Method: as §1, §2

human plasma = test: Anti-coagulation activity in human plasma; conditions: calcium chloride, 37° C. for 30 min, judged with the naked eye

Compound: 1-[N-{5-Acetamido-3,5-dideoxy-2-O-methyl-4,7,8,9-tetra-O-(sodium oxysulfonyl)-D-glycero-β-D-galacto-2-nonulopyranosonyl}amino]-2,2-bis(docosyloxymethyl) propane [Example 59]
- CC50 [1]: > 200 µM
- pIC50 (AIDS virus (HIV-1, IIIb)): 5.85

Compound: 3-O-[Sodium{5-acetamido-3,5-dideoxy-4,7,8,9-tetra-O-(sodium oxysulfonyl)-D-glycero-α-D-galacto-2-nonulopyranosyl}onate]-1,2-di-O-tetradecyl-Sn-glycerol [Example 7]
- CC50 [1]: > 200 µM
- pIC50 (AIDS virus (HIV-1, IIIb)): 4.80

Compound: 3-S-[Sodium{5-acetamido-3,5-dideoxy-4,7,8,9-tetra-O-(sodium oxysulfonyl)-D-glycero-α-D-galacto-2-nonulopyranosyl}onate]-1,2-di-O-tetradecyl-Sn-thioglycerol [Example 14]
- CC50 [1]: > 200 µM
- pIC50 (AIDS virus (HIV-1, IIIb)): 4.82

Compound: CCCCCCCCCCOCC(COC1(C(=O)O)CC(OS(=O)(=O)O)C(NC(C)=O)C(C(OS(=O)(=O)O)C(COS(=O)(=O)O)OS(=O)(=O)O)O1)OCCCCCCCCCC [Example 5, 3-O-[Sodium{5-acetamido-3,5-dideoxy-4,7,8,9-tetra-O-(sodiumoxysulfonyl)-D-glycero-α-D-galacto-2-nonulopyranosyl}onate]-1,2-di-O-decyl-Sn-glycerol]
- CC50 [1]: > 200 µM
- pIC50 (AIDS virus (HIV-1, IIIb)): 4.34

Compound: CCCCCCCCCCOCC(COC1(C(=O)O)CC(OS(=O)(=O)O)C(NC(C)=O)C(C(OS(=O)(=O)O)C(COS(=O)(=O)O)OS(=O)(=O)O)O1)OCCCCCCCCCC [Example 6, 3-O-[Sodium{5-acetamido-3,5-dideoxy4,7,8,9-tetra-O-(sodiumoxysulfonyl)-D-glycero-β-D-galacto-2-nonulopyranosyl}onate]-1,2-di-O-decyl-Sn-glycerol]
- CC50 ([1]; H9 cells, MTT method, 6th day, read-out: CC 50): > 200 µM
- pIC50 (AIDS virus (HIV-1, IIIb)): 4.30

Compound: CCCCCCCCCCCCCCOCC(COC1(C(=O)O)CC(OS(=O)(=O)O)C(NC(C)=O)C(C(OS(=O)(=O)O)C(COS(=O)(=O)O)OS(=O)(=O)O)O1)OCCCCCCCCCCCCCC [Example 8, 3-O-[Sodium{5-acetamido-3,5-dideoxy-4,7,8,9-tetra-O-(sodiumoxysulfonyl)-D-glycerol-β-D-galacto-2-nonulopyranosyl}ornate]-1,2-di-O-tetradecyl-Sn-glycerol]
- CC50 [1]: > 200 µM
- pIC50 (AIDS virus (HIV-1, IIIb)): 4.82

Compound: CCCCCCCCCCCCCCCCCCOCC(COC1(C(=O)O)CC(OS(=O)(=O)O)C(NC(C)=O)C(C(OS(=O)(=O)O)C(COS(=O)(=O)O)OS(=O)(=O)O)O1)OCCCCCCCCCCCCCCCCCC [Example 9, 3-O-[Sodium{5-acetamido-3,5-dideoxy-4,7,8,9-tetra-O-(sodiumoxysulfonyl)-D-glycerol-α-D-galacto-2-nonulopyranosyl)onate]-1,2-di-O-octadecyl-Sn-glycerol]
- CC50 [1]: > 200 µM
- pIC50 (AIDS virus (HIV-1, IIIb)): 5.42

Compound: CCCCCCCCCCCCCCCCCCOCC(COC1(C(=O)O)CC(OS(=O)(=O)O)C(NC(C)=O)C(C(OS(=O)(=O)O)C(COS(=O)(=O)O)OS(=O)(=O)O)O1)OS(=O)(=O)O [Example 10, 3-O-[Sodium{5-acetamido-3,5-dideoxy-4,7,8,9-tetra-O-(sodiumoxysulfonyl)-D-glycero-α-D-galacto-2-nonulopyranosyl}onate]-2-O-(sodiumoxysulfonyl)-1-O-octadecyl-Sn-glycerol]
- CC50 [1]: > 200 µM
- pIC50 (AIDS virus (HIV-1, IIIb)): 4.52

Compound: CCCCCCCCCCCCCCCCCCOC[C@H](CO[C@@]1(C(=O)O)C[C@H](OS(=O)(=O)O)[C@@H](NC(C)=O)[C@H]([C@H](OS(=O)(=O)O)[C@@H](COS(=O)(=O)O)OS(=O)(=O)O)O1)OS(=O)(=O)O [Example 11, 3-O-[Sodium{5-acetamido-3,5-dideoxy4,7,8,9-tetra-O-(sodiumoxysulfonyl)-D-glycero-β-D-galacto-2-nonulopyranosyl}onate]-2-O-(sodiumoxysulfonyl)-1-O-octadecyl-Sn-glycerol]
- CC50 [1]: 200 µM
- pIC50 (AIDS virus (HIV-1, IIIb)): 4.89

Compound: CCCCCCCCCCCCCCCCCCCCOCC(COC1(C(=O)O)CC(OS(=O)(=O)O)C(NC(C)=O)C(C(OS(=O)(=O)O)C(COS(=O)(=O)O)OS(=O)(=O)O)O1)OCCCCCCCCCCCCCCCCCCCC [Example 17, 3-O-[Sodium{5-acetamido-3,5-dideoxy-4,7,8,9-tetra-O-(sodiumoxysulfonyl)-D-glycero-α-D-galacto-2-nonulopyranosyl)onate]-1,2-di-O-eicosyl-Sn-glycerol]
- CC50 [1]: > 20 µM
- pIC50 (AIDS virus (HIV-1, IIIb)): 5.60

Compound: CCCCCCCCCCCCCCCCCCCCCCCCOCC(COC1(C(=O)O)CC(OS(=O)(=O)O)C(NC(C)=O)C(C(OS(=O)(=O)O)C(COS(=O)(=O)O)OS(=O)(=O)O)O1)OCCCCCCCCCCCCCCCCCCCCCCCC [Example 20, 3-O-[Sodium{5-acetamido-3,5-dideoxy-4,7,8,9-tetra-O-(sodiumoxysulfonyl)-D-glycero-α-D-galacto-2-nonulopyranosyl}onate]-1,2-di-O-tetracosyl-Sn-glycerol]
- CC50 [1]: > 20 µM
- pIC50 (AIDS virus (HIV-1, IIIb)): 5.92

Compound: CC(=O)N[C@H]1[C@H]([C@H](OS(=O)(=O)O)[C@@H](COS(=O)(=O)O)OS(=O)(=O)O)O[C@@](O[C@H]2CC[C@@]3(C)C(=CC[C@H]4[C@@H]5CC[C@H]([C@H](C)CCCC(C)C)[C@@]5(C)CC[C@@H]43)C2)(C(=O)O)C[C@@H]1OS(=O)(=O)O [Example 24, 3β-[Sodium{5-acetamido-3,5-dideoxy-4,7,8,9-tetra-O-(sodiumoxysulfonyl)-D-glycero-α-D-galacto-2-nonulopyranosyl}onate]-5-cholestene]
- CC50 [1]: > 200 µM
- pIC50 (AIDS virus (HIV-1, IIIb)): 4.47

Compound: CCCCCCCC/C=C\CCCCCCCCOC1(C(=O)O)CC(OS(=O)(=O)O)C(NC(C)=O)C(C(OS(=O)(=O)O)C(COS(=O)(=O)O)OS(=O)(=O)O)O1 [Example 25, Sodium[oleyl 5-acetamido-3,5-dideoxy-4,7,8,9-tetra-O-(sodiumoxysulfonyl)-D-glycero-α-D-galacto-2-nonulopyranosid]onate]
- CC50 [1]: > 200 µM
- pIC50 (AIDS virus (HIV-1, IIIb)): 4.00

Compound: CCCCCCCCCCCCCCCCCCO[C@]1(C(=O)O)C[C@H](OS(=O)(=O)O)[C@@H](NC(C)=O)[C@H]([C@H](OS(=O)(=O)O)[C@@H](COS(=O)(=O)O)OS(=O)(=O)O)O1 [Example 26, Sodium[octadecyl 5-acetamido-3,5-dideoxy-4,7,8,9-tetra-O-(sodiumoxysulfonyl)-D-glycero-α-D-galacto-2-nonulopyranosid)onate]
- CC50 [1]: > 200 µM
- pIC50 (AIDS virus (HIV-1, IIIb)): 4.00

Compound: CCCCCCCCCCCCCCCCCCCCOCC(C)(COCCCCCCCCCCCCCCCCCCCC)CO[C@]1(C(=O)O)C[C@H](OS(=O)(=O)O)[C@@H](NC(C)=O)[C@H]([C@H](OS(=O)(=O)O)[C@@H](COS(=O)(=O)O)OS(=O)(=O)O)O1 [Example 32, Sodium[2,2-bis(eicosyloxymethyl)propyl 5-acetamido-3,5-dideoxy-4,7,8,9-tetra-O-(sodiumoxysulfonyl)-D-glycero-α-D-galacto-2-nonulopyranosid)onate]
- CC50 [1]: > 200 µM
- pIC50 (AIDS virus (HIV-1, IIIb)): 5.60

Compound: CCCCCCCCCCCCCCCCCCCCCCOc1cc(OCCCCCCCCCCCCCCCCCCCCCC)cc(O[C@@]2(C(=O)O)C[C@H](OS(=O)(=O)O)[C@@H](NC(C)=O)[C@H]([C@H](OS(=O)(=O)O)[C@@H](COS(=O)(=O)O)OS(=O)(=O)O)O2)c1 [Example 35, Sodium[3,5-Didocosyloxyphenyl-5-acetamido-3,5-dideoxy-4,7,8,9-tetra-O-(sodiumoxysulfonyl)-D-glycero-β-D-galacto-2-nonulopyranosid)onate]
- CC50 [1]: > 20 µM
- pIC50 (AIDS virus (HIV-1, IIIb)): 4.05

Compound: CCCCCCCCCCCCCCCCCCCCCC(=O)OCC(COC1(C(=O)O)CC(OS(=O)(=O)O)C(NC(C)=O)C(C(OS(=O)(=O)O)C(COS(=O)(=O)O)OS(=O)(=O)O)O1)OC(=O)CCCCCCCCCCCCCCCCCCCCC [Example 38, 3-O-[Sodium{5-acetamido-3,5-dideoxy-4,7,8,9-tretra-O-(sodiumoxysulfonyl)-D-glycero-α-D-galacto-2-nonulopyranosyl}onate]-1,2-di-O-docosanoyl-Sn-glycerol]
- CC50 [1]: > 200 µM
- pIC50 (AIDS virus (HIV-1, IIIb)): 5.60

Compound: CCCCCCCCCCCCCCCCCCCCCCOCC(COC1(C(=O)O)CC(OS(=O)(=O)O)C(OS(=O)(=O)O)C(C(OS(=O)(=O)O)C(COS(=O)(=O)O)OS(=O)(=O)O)O1)OCCCCCCCCCCCCCCCCCCCCCC [Example 41, 3-O-[Sodium{3-deoxy-4,5,7,8,9-penta-O-(sodiumoxysulfonyl)-D-glycero-α-D-galacto-2-nonulopyranosyl}onate]-1,2-di-O-docosyl-Sn-glycerol]
- CC50 [1]: > 200 µM
- pIC50 (AIDS virus (HIV-1, IIIb)): 5.40

Compound: CCCCCCCCCCCCCCCCCCCCCCOCC(CC)(COCCCCCCCCCCCCCCCCCCCCCC)COC1(C(=O)O)CC(OS(=O)(=O)O)C(NC(C)=O)C(C(OS(=O)(=O)O)C(COS(=O)(=O)O)OS(=O)(=O)O)O1 [Example 50, Sodium[2,2-bis(docosyloxymethyl)butyl 5-acetamido-3,5-dideoxy-4,7,8,9-tetra-O-(sodiumoxysulfonyl)-D-glycero-α-D-galacto-2-nonulopyranosid)onate]
- CC50 [1]: > 200 µM
- pIC50 (AIDS virus (HIV-1, IIIb)): 5.96

Compound: Dextran sulfate [reference compound]
- Minimum concentration exhibiting anticoagulant action (human plasma): 0.5 µM
